Data taken from US20250197384A1, “AZOLE COMPOUND AND ANTIFUNGAL AGENT” (NIHON NOHYAKU CO., LTD., priority 2022, published 2025).
Values after ≈ are worked out from the molar mass of the structure shown.

How the values were obtained:
[1] = tested on: Aspergillus fumigatus TIMM0063; test: In vitro anti-Aspergillus activity test; format: cell-based; conditions: for A. fumigatus (MIC): 80% or more inhibition, unit inferred
Protocol: Aspergillus fumigatus TIMM0063 was used as the strain. The test fungi were cultured on a Potato dextrose agar slant medium at 35° C. for 4 days, and then sterilized saline containing 0.1% (v/v) Tween 80 was added to release the conidia. This conidial suspension was filtered through sterile gauze, and the number of conidia was counted using a hemocytometer. The same solution was adjusted to a conidial concentration of 1×10^6 conidia/mL, and this was used as an inoculum. Each compound was dissolved in dimethyl sulfoxide to a predetermined concentration, and diluted 50-fold with 0.165 M MOPS buffered RPMI 1640 liquid medium, and each diluted solution was dispensed into a 96-well microplate by each 100 μL. The inoculum was diluted 50-fold with 0.165 M MOPS buffered RPMI 1640 liquid medium containing 20% alamar Blue™, and the diluted solution was inoculated into the 96-well microplate containing the compound by each 100 μL (final inoculum amount 1.0×10^4 conidia/mL). After static culture at 35° C. for 48 hr, the degree of color development of the alamar Blue™ was measured using a microplate reader (O.D. 570-595 nm), and the minimum concentration showing 80% or more inhibition was defined as the minimum inhibitory concentration (MIC).

[2] = tested on: Candida albicans NBRC1270; test: In vitro anti-Candida activity test; format: cell-based; conditions: for C. albicans (MIC): 80% or more inhibition, unit inferred
Protocol: Candida albicans NBRC1270 was used as the strain. The test fungi were cultured on a Sabouraud dextrose agar slant medium at 35° C. for 24 hr, and then suspended in sterilized saline. The number of cells in this suspension was counted using a hemocytometer, and the same suspension was adjusted to a cell concentration of 1.5×10^5 cells/mL, and this was used as an inoculum. Each compound was dissolved in dimethyl sulfoxide to a predetermined concentration, and diluted 50-fold with 0.165 M MOPS buffered RPMI 1640 liquid medium, and each diluted solution was dispensed into a 96-well microplate by each 100 μL. The inoculum was diluted 50-fold with 0.165 M MOPS buffered RPMI 1640 liquid medium containing 20% alamar Blue™, and the diluted solution was inoculated into the 96-well microplate containing the compound by each 100 μL (final inoculum amount 1.5×10^3 cells/mL). After static culture at 35° C. for 24 hr, the degree of color development of the alamar Blue™ was measured using a microplate reader (O.D. 570-595 nm), and the minimum concentration showing 80% or more inhibition was defined as the minimum inhibitory concentration (MIC).

[3] = Table 22, 35° C. for 48 hr, alamar Blue, minimum concentration showing 80% or more inhibition
[4] = Table 22, 35° C. for 24 hr, alamar Blue, minimum concentration showing 80% or more inhibition

Row | Structure (SMILES) | minimum inhibitory concentration against various fungi (MIC) A. fumigatus [1, 3] [ng/mL] | minimum inhibitory concentration against various fungi (MIC) C. albicans [2, 4] [ng/mL] | A. fumigatus (MIC) ([1]; Table 23, 35° C. for 48 hr) [ng/mL] | C. albicans (MIC) ([2]; Table 23, 35° C. for 24 hr) [ng/mL] | further results
1 | N#C/C(=C1/SCC(c2ncc(NC(=O)OCC3(F)CC3)cc2Cl)S1)n1cncn1 (racemic) [compound 150] | – | – | – | – | A. fumigatus (MIC) ([1]; Table 25, 35° C. for 48 hr): 10 ng/mL; C. albicans (MIC) ([2]; Table 25, 35° C. for 24 hr): 5 ng/mL
2 | N#C/C(=C1/SCC(c2ncc(NC(=O)OCC3CC3(Cl)Cl)cc2Cl)S1)n1cncn1 (racemic) [compound 151] | – | – | – | – | A. fumigatus (MIC) ([1]; Table 25, 35° C. for 48 hr): 10 ng/mL; C. albicans (MIC) ([2]; Table 25, 35° C. for 24 hr): 2.5 ng/mL
3 | CCOC(=O)Nc1cnc([C@@H]2CS/C(=C(/C#N)n3cncn3)S2)c(F)c1 [Compound No. 8, ethyl (R,E)-(6-{2-[cyano(1H-1,2,4-triazol-1-yl)methylene]-1,3-dithiolan-4-yl}-5-fluoropyridin-3-yl)carbamate] | – | – | – | – | MIC ([1]; Aspergillus fumigatus, Table 22, 35° C. for 48 hr, alamar Blue, minimum concentration showing 80% or more inhibition, read-out: minimum inhibitory concentration against various fungi (MIC) A. fumigatus): 5 ng/mL (≈ 0.0127 µM); MIC ([2]; Candida albicans, Table 22, 35° C. for 24 hr, alamar Blue, minimum concentration showing 80% or more inhibition, read-out: minimum inhibitory concentration against various fungi (MIC) C. albicans): 25 ng/mL (≈ 0.0637 µM)
4 | CC1(C)OCC(c2cnc(C3CS/C(=C(/C#N)n4ccnc4)S3)c(Cl)c2)O1 (stereo not drawn) [compound 5] | 10 (≈ 0.0238 µM) | 5 (≈ 0.0119 µM) | – | – | –
5 | COC(=O)Nc1cnc([C@@H]2CS/C(=C(/C#N)n3cncn3)S2)c(Cl)c1 [compound 9] | 5 (≈ 0.0127 µM) | 13 (≈ 0.0329 µM) | – | – | –
6 | N#C/C(=C1/SCC(c2ncc(NC(=O)OCc3ccccc3)cc2F)S1)n1cncn1 (stereo not drawn) [compound 13] | 5 (≈ 0.011 µM) | 2.5 (≈ 0.0055 µM) | – | – | –
7 | N#C/C(=C1/SCC(c2ncc(NC(=O)OCc3ccccc3)cc2Cl)S1)n1cncn1 (stereo not drawn) [compound 14] | 5 (≈ 0.0106 µM) | 1.3 (≈ 0.00276 µM) | – | – | –
8 | N#C/C(=C1/SCC(c2ncc(NC(=O)OCc3ccccc3)cc2Cl)S1)n1ccnc1 (stereo not drawn) [compound 17] | 5 (≈ 0.0106 µM) | 1.3 (≈ 0.00277 µM) | – | – | –
9 | CO/N=C/c1cnc(C2CS/C(=C(/C#N)n3cncn3)S2)c(F)c1 (stereo not drawn) [compound 18] | 10 (≈ 0.0276 µM) | 50 (≈ 0.138 µM) | – | – | –
10 | CCO/N=C/c1cnc(C2CS/C(=C(/C#N)n3cncn3)S2)c(F)c1 (stereo not drawn) [compound 20] | 10 (≈ 0.0266 µM) | 13 (≈ 0.0345 µM) | – | – | –
11 | N#C/C(=C1/SCC(c2ncc(/C=N/OCc3ccccc3)cc2F)S1)n1cncn1 (stereo not drawn) [compound 22] | 5 (≈ 0.0114 µM) | 0.6 (≈ 0.00137 µM) | – | – | –
12 | N#C/C(=C1/SCC(c2ncc(/C=N/OCc3ccccc3)cc2Cl)S1)n1ccnc1 (stereo not drawn) [compound 26] | 5 (≈ 0.011 µM) | 1.3 (≈ 0.00286 µM) | – | – | –
13 | N#C/C(=C1/SCC(c2ncc(COC3CCCCO3)cc2Cl)S1)n1ccnc1 (stereo not drawn) [compound 28, (E)-2-[4-(3-chloro-5-{[(tetrahydro-2H-pyran-2-yl)oxy]methyl}pyridin-2-yl)-1,3-dithiolan-2-ylidene]-2-(1H-imidazol-1-yl)acetonitrile] | – | – | 10 | 10 | –
14 | N#C/C(=C1/SCC(c2ncc(NC(=O)OCCCl)cc2Cl)S1)n1ccnc1 (stereo not drawn) [compound 66] | – | – | 10 | 5 | –
15 | N#C/C(=C1/SCC(c2ncc(NC(=O)OCCCCl)cc2Cl)S1)n1ccnc1 (stereo not drawn) [compound 67] | – | – | 10 | 2.5 | –
16 | N#C/C(=C1/SCC(c2ncc(NC(=O)OCc3ccc(F)cn3)cc2Cl)S1)n1cncn1 (stereo not drawn) [compound 73] | – | – | 10 | 10 | –
17 | N#C/C(=C1/SCC(c2ncc(NC(=O)OCc3ccc(F)nc3)cc2Cl)S1)n1cncn1 (stereo not drawn) [compound 74] | – | – | 10 | 10 | –
18 | CCOC(=O)Nc1cnc([C@@H]2CS/C(=C(/C#N)n3cncn3)S2)c(Cl)c1 [compound 79] | – | – | 5 | 5 | –
19 | N#C/C(=C1/SC[C@@H](c2ncc(NC(=O)OCC3CC3)cc2Cl)S1)n1cncn1 [compound 92] | – | – | 2.5 | 0.63 | –
20 | CCCOC(=O)Nc1cnc([C@@H]2CS/C(=C(/C#N)n3cncn3)S2)c(Cl)c1 [compound 94] | – | – | 2.5 | 2.5 | –
21 | N#C/C(=C1/SC[C@@H](c2ncc(NC(=O)OCc3ccccc3)cc2Cl)S1)n1cncn1 [compound 100] | – | – | 2.5 | 0.63 | –
